Laboratory results taken from patent publication US20230192618A1, “CRYSTALLINE SALT FORMS OF N-(4-(4-(CYCLOPROPYLMETHYL)PIPERAZINE-1-CARBONYL)PHENYL)QUINOLINE-8-SULFONAMIDE” (Agios Pharmaceuticals, Inc., priority 2019, published 2023).
Values belong to the compound of their own block, whether it stands above or below them.

How the values were obtained:
[1] = Crystalline stability by XRPD after 7 days at 40° C./75% RH; type: physicochemical; settings: for Crystalline Stability (XRPD pattern): after 7 days at 40° C./75% RH
Description: (§1) The Rigaku Smart-Lab X-ray diffraction system was configured for reflection Bragg- Brentano geometry using a line source X-ray beam. The x-ray source was a Cu Long Fine Focus tube that was operated at 40 kV and 44 ma. That source provided an incident beam profile at the sample that changes from a narrow line at high angles to a broad rectangle at low angles. Beam conditioning slits were used on the line X-ray source to ensure that the maximum beam size was less than 10 mm both along the line and normal to the line. The Bragg-Brentano geometry was a para-focusing geometry controlled by passive divergence and receiving slits with the sample itself acting as the focusing component for the optics. The inherent resolution of Bragg-Brentano geometry was governed in part by the diffractometer radius and the width of the receiving slit used. Typically, the Rigaku Smart-Lab was operated to give peak widths of 0.1 °2θ or less. The axial divergence of the X-ray beam was controlled by 5.0-degree Soller slits in both the incident and diffracted beam paths.
(§2) Powder samples were prepared in a low background Si holder using light manual pressure to keep the sample surfaces flat and level with the reference surface of the sample holder. Each sample was analyzed from 2 to 40 °2θ using a continuous scan of 6 °2θ per minute with an effective step size of 0.02 °2θ.
(§3) The chemical purity analyzed by HPLC and crystalline stability by XRPD for each of the crystalline salt Forms A to M prepared according to the procedures described in Examples 1-13 are summarized in Table 14. In short, these salt forms all yielded a chemical purity higher than 99%.

[2] = Crystalline stability by XRPD after heating (removal of volatiles); type: physicochemical
Description: as §1, §2, §3

SMILES: O=C(c1ccc(NS(=O)(=O)c2cccc3cccnc23)cc1)N1CCN(CC2CC2)CC1 [Form F]
- Crystalline Stability (XRPD pattern) ([1]; listed as Crystalline Hydrochloride Salt Form F): no change in XRPD pattern after 7 days at 40° C./75% RH or after heating to 130 °C (removal of volatiles)
- Crystalline Stability (XRPD pattern) ([2]; after heating to 130° C. (removal of volatiles)): no change in XRPD pattern after 7 days at 40° C./75% RH or after heating to 130 °C (removal of volatiles)

SMILES: O=C(c1ccc(NS(=O)(=O)c2cccc3cccnc23)cc1)N1CCN(CC2CC2)CC1 [Form B]
- Crystalline Stability (XRPD pattern) ([1]; listed as Crystalline Fumarate Salt Form B): no change in XRPD pattern after 7 days at 40° C./75% RH or after heating to 120 °C (removal of volatiles)
- Crystalline Stability (XRPD pattern) ([2]; after heating to 120° C. (removal of volatiles)): no change in XRPD pattern after 7 days at 40° C./75% RH or after heating to 120 °C (removal of volatiles)

- Crystalline Stability (XRPD pattern) ([1]; listed as Crystalline Phosphate Salt Form J): additional peaks in XRPD pattern
- Crystalline Stability (XRPD pattern) ([2]; after heating to 175° C. (removal of volatiles)): no change in XRPD pattern
SMILES: O=C(c1ccc(NS(=O)(=O)c2cccc3cccnc23)cc1)N1CCN(CC2CC2)CC1 [Form J]

SMILES: O=C(c1ccc(NS(=O)(=O)c2cccc3cccnc23)cc1)N1CCN(CC2CC2)CC1 [Form D]
- Crystalline Stability (XRPD pattern) ([1]; listed as Crystalline Gentisate Salt Form D): no change in XRPD pattern after 7 days at 40° C./75% RH

SMILES: O=C(c1ccc(NS(=O)(=O)c2cccc3cccnc23)cc1)N1CCN(CC2CC2)CC1 [Form G]
- Crystalline Stability (XRPD pattern) ([1]; listed as Crystalline Hydrochloride Salt Form G): unique XRPD pattern after 7 days at 40° C./75% RH

SMILES: O=C(c1ccc(NS(=O)(=O)c2cccc3cccnc23)cc1)N1CCN(CC2CC2)CC1 [Form C]
- Crystalline Stability (XRPD pattern) ([1]; listed as Crystalline Fumarate Salt Form C): no change in XRPD pattern after 7 days at 40° C./75% RH

SMILES: O=C(c1ccc(NS(=O)(=O)c2cccc3cccnc23)cc1)N1CCN(CC2CC2)CC1 [Form E]
- Crystalline Stability (XRPD pattern) ([1]; listed as Crystalline Gentisate Salt Form E): significant changes in XRPD pattern after 7 days at 40° C./75% RH

SMILES: O=C(c1ccc(NS(=O)(=O)c2cccc3cccnc23)cc1)N1CCN(CC2CC2)CC1 [Form K]
- Crystalline Stability (XRPD pattern) ([1]; listed as Crystalline Phosphate Salt Form K): no change in XRPD pattern after 7 days at 40° C./75% RH

- Crystalline Stability (XRPD pattern) ([1]; listed as Crystalline Tartrate Salt Form L): unique XRPD pattern
- Crystalline Stability (XRPD pattern) ([2]; after heating to 150° C. (removal of volatiles)): becomes non-crystalline
SMILES: O=C(c1ccc(NS(=O)(=O)c2cccc3cccnc23)cc1)N1CCN(CC2CC2)CC1 [Form L]

SMILES: O=C(c1ccc(NS(=O)(=O)c2cccc3cccnc23)cc1)N1CCN(CC2CC2)CC1 [Form H]
- Crystalline Stability (XRPD pattern) ([1]; listed as Crystalline Maleate Salt Form H): no change in XRPD pattern after 7 days at 40° C./75% RH

SMILES: O=C(c1ccc(NS(=O)(=O)c2cccc3cccnc23)cc1)N1CCN(CC2CC2)CC1 [Form I]
- Crystalline Stability (XRPD pattern) ([1]; listed as Crystalline Malonate Salt Form I): no change in XRPD pattern after 7 days at 40° C./75% RH

- crystalline stability by XRPD ([1]; 7 days at elevated temperature and relative humidity (e.g., 40° C./75% RH)): maintained their original forms
SMILES: O=C(c1ccc(NS(=O)(=O)c2cccc3cccnc23)cc1)N1CCN(CC2CC2)CC1 [Form A]
- Crystalline Stability (XRPD pattern) ([1]; listed as Crystalline Besylate Salt FormA): no change in XRPD pattern after 7 days at 40° C./75% RH

SMILES: O=C(c1ccc(NS(=O)(=O)c2cccc3cccnc23)cc1)N1CCN(CC2CC2)CC1 [Form M]
- Crystalline Stability (XRPD pattern) ([1]; listed as Crystalline Tosylate Salt Form M): no change in XRPD pattern after 7 days at 40° C./75% RH
